Measurements from patent US9365588B2, “Benzoxazines as modulators of ion channels” (Vertex Pharmaceuticals Incorporated, priority 2011, dated 2016).

Target: human NaV 1.7 (Homo sapiens, UniProt Q15858)
Assay: E-VIPR optical membrane potential assay with electrical stimulation
Assay type: cell-based
Conditions: sodium channel inhibition; read-out: Binned Activity Data (IC50)
Source text: Assays for Detecting and Measuring NaV Inhibition Properties of Compound E-VIPR Optical Membrane Potential Assay Method with Electrical Stimulation
Sodium channels are voltage-dependent proteins that can be activated by inducing membrane voltage changes by applying electric fields. The electrical stimulation instrument and methods of use are described in Ion Channel Assay Methods PCT/US01/21652, herein incorporated by reference and are referred to as E-VIPR. The instrument comprises a microtiter plate handler, an optical system for exciting the coumarin dye while simultaneously recording the coumarin and oxonol emissions, a waveform generator, a current- or voltage-controlled amplifier, and a device for inserting electrodes in well. Under integrated computer control, this instrument passes user-programmed electrical stimulus protocols to cells within the wells of the microtiter plate.
24 hours before the assay on E-VIPR, HEK cells expressing human NaV subtype, like NaV 1.7, are seeded in 384-well poly-lysine coated plates at 15,000-20,000 cells per well. Other subtypes are performed in an analogous mode in a cell line expressing the NaV of interest. HEK cells are grown in media (exact composition is specific to each cell type and NaV subtype) supplemented with 10% FBS (Fetal Bovine Serum, qualified; GibcoBRL #16140-071) and 1% Pen-Strep (Penicillin-Streptomycin; GibcoBRL #15140-122). Cells are grown in vented cap flasks, in 90% humidity and 10% CO2, to 100% confluence. They are usually split by trypsinization 1:10 or 1:20, depending on scheduling needs, and grown for 2-3 days before the next split.
Bath1 buffer. Glucose 10 mM (1.8 g/L), Magnesium Chloride (Anhydrous), 1 mM (0.095 g/L), Calcium Chloride, 2 mM (0.222 g/L), HEPES 10 mM (2.38 g/L), Potassium Chloride, 4.5 mM (0.335 g/L), Sodium Chloride 160 mM (9.35 g/L).
Hexyl Dye Solution: Bath1 Buffer+0.5% β-cyclodextrin (make this prior to use, Sigma #C4767), 8 μM CC2-DMPE+2.5 μM DiSBAC6(3). To make the solution Add volume of 10% Pluronic F127 stock equal to volumes of CC2-DMPE+DiSBAC6(3). The order of preparation is first mix Pluronic and CC2-DMPE, then add DiSBAC6(3) while vortexing, then add Bath1+β-Cyclodextrin.
1) Pre-spot compounds (in neat DMSO) into compound plates. Vehicle control (neat DMSO), the positive control (20 mM DMSO stock tetracaine, 125 μM final in assay) and test compounds are added to each well at 160× desired final concentration in neat DMSO. Final compound plate volume will be 80 μL (80-fold intermediate dilution from 1 μL DMSO spot; 160-fold final dilution after transfer to cell plate). Final DMSO concentration for all wells in assay is 0.625%.
2) Prepare Hexyl Dye Solution.
3) Prepare cell plates. On the day of the assay, medium is aspirated and cells are washed three times with 100 μL of Bath1 Solution, maintaining 25 μL residual volume in each well.
4) Dispense 25 μL per well of Hexyl Dye Solution into cell plates. Incubate for 20-35 minutes at room temp or ambient conditions.
5) Dispense 80 μL per well of Bath1 into compound plates. Acid Yellow-17 (1 mM) is added and Potassium Chloride can be altered from 4.5 to 20 mM depending on the NaV subtype and assay sensitivity.
6) Wash cell plates three times with 100 μL per well of Bath1, leaving 25 μL of residual volume. Then transfer 25 uL per well from Compound Plates to Cell Plates. Incubate for 20-35 minutes at room temp/ambient condition
7) Read Plate on E-VIPR. Use the current-controlled amplifier to deliver stimulation wave pulses for typically 9 seconds and a scan rate of 400 Hz. A pre-stimulus recording is performed for 0.5 seconds to obtain the un-stimulated intensities baseline. The stimulatory waveform is applied for 9 seconds followed by 0.5 seconds of post-stimulation recording to examine the relaxation to the resting state. […]

Sequence of human NaV 1.7 (Q15858 whole entry): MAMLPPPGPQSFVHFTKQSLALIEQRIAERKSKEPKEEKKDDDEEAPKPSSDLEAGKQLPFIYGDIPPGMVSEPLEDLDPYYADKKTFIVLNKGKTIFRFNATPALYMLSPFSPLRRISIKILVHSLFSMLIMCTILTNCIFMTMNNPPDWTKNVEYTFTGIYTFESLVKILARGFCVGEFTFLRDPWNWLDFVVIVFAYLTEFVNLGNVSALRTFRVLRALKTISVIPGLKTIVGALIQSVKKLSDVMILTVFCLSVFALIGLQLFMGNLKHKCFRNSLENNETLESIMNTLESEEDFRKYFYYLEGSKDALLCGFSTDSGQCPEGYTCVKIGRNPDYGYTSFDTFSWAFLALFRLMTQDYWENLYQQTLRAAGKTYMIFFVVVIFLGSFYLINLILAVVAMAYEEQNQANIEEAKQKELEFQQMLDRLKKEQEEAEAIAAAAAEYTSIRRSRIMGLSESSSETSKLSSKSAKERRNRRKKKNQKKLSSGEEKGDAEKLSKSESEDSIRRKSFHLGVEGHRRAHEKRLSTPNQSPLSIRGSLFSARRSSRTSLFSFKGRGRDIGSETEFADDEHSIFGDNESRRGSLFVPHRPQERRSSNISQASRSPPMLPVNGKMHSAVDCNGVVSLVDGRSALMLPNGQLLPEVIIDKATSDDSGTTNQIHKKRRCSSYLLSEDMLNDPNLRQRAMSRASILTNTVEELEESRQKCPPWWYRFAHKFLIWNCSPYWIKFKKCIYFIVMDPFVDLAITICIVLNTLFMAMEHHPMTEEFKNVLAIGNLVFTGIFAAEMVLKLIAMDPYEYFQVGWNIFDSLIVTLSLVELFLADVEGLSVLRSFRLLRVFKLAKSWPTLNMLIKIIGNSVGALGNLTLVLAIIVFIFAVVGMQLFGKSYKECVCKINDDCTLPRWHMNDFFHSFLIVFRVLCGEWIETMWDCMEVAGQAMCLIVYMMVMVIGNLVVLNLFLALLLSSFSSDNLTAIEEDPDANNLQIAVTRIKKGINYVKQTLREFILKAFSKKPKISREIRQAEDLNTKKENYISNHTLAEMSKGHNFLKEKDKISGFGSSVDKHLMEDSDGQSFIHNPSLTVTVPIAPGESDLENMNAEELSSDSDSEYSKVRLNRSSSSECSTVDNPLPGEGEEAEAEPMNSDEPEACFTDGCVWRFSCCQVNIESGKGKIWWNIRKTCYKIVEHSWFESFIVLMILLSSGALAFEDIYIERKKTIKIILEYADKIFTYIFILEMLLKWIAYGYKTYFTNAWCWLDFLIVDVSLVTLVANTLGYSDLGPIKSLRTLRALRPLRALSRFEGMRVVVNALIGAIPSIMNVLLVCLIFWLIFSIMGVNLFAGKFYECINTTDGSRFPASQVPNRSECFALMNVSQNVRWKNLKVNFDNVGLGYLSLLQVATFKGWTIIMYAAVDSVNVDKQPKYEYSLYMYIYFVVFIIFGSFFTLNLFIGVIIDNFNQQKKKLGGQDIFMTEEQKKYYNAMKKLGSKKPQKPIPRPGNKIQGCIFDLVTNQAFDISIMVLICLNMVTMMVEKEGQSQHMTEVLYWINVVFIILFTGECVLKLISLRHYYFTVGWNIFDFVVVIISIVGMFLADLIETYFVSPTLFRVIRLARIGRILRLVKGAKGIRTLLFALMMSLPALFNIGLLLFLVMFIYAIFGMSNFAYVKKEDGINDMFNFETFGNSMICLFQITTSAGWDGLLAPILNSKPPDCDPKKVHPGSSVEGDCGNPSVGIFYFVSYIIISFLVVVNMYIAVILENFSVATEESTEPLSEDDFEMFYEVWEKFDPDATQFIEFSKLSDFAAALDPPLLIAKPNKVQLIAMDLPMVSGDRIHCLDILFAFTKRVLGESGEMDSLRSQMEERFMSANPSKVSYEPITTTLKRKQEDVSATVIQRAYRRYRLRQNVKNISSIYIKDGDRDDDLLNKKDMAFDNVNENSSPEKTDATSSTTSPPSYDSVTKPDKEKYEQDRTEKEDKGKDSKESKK

COc1ccc(C(=O)N2CCC3(CC2)Oc2ccccc2-n2cccc23)cc1S(C)(=O)=O [Compound 41]
IC50: ≤ 2000 nM

CC(C)Oc1ccc(C(=O)N2CCC3(CC2)Oc2ccccc2-n2c(C#N)ccc23)cc1F [Compound 42]
IC50: ≤ 2000 nM

Cn1ncc2c1-c1ccccc1OC21CCN(C(=O)c2cccc3ncn(C)c23)CC1 [Compound 43]
IC50: 2000 to 5000 nM

Cc1c(F)cccc1C(=O)N1CCC2(CC1)Oc1ccccc1-c1c2cnn1C [Compound 44]
IC50: ≤ 2000 nM

COc1cc(C(=O)N2CCC3(CC2)Oc2cc(Cl)ccc2-n2cccc23)ccc1C1(OC)COC1 [Compound 45]
IC50: ≤ 2000 nM

COc1cc(C(=O)N2CCC3(CC2)Oc2ccccc2-n2c([S+](C)[O-])ccc23)ccc1OC(C)(C)C (stereo not drawn) [Compound 46]
IC50: > 5000 nM

COc1cc(C(=O)N2CCC3(CC2)Oc2ccccc2-c2c3cnn2C)ccc1OCC(C)C [Compound 47]
IC50: ≤ 2000 nM

COc1cc(C(=O)N2CCC3(CC2)Oc2ccccc2-n2cccc23)ccc1OC[C@H](C)OC [Compound 48]
IC50: ≤ 2000 nM

CC(CO)NS(=O)(=O)c1ccc(C(=O)N2CCC3(CC2)Oc2ccccc2-n2c(C#N)ccc23)cc1 (stereo not drawn) [Compound 49]
IC50: > 5000 nM

CC(C)C(O)c1ccc(C(=O)N2CCC3(CC2)Oc2ccccc2-n2c(C(F)(F)F)ccc23)cc1 (stereo not drawn) [Compound 50]
IC50: ≤ 2000 nM

CCn1ncc2c1-c1ccccc1OC21CCN(C(=O)c2ccc(OCCOC)c(OC)c2)CC1 [Compound 51]
IC50: ≤ 2000 nM

Cc1cc(C(=O)N2CCC3(CC2)Oc2cc(F)ccc2-n2cccc23)ccc1C(C)(C)O [Compound 52]
IC50: ≤ 2000 nM

Cc1cc(S(=O)(=O)C(C)C)ccc1C(=O)N1CCC2(CC1)Oc1ccccc1-c1c2cnn1C [Compound 53]
IC50: ≤ 2000 nM

Cc1cc(C(=O)N2CCC3(CC2)Oc2ccccc2-n2c(C#N)ccc23)ccc1[C@](C)(O)CO [Compound 54]
IC50: ≤ 2000 nM

CCc1ccc(C(=O)N2CCC3(CC2)Oc2cc(Cl)ccc2-n2cccc23)cc1C [Compound 55]
IC50: ≤ 2000 nM

CC1Oc2c(C(=O)N3CCC4(CC3)Oc3ccccc3-c3c4cnn3C)cccc2C1C (stereo not drawn) [Compound 56]
IC50: ≤ 2000 nM

O=C(c1cc(Cl)cc(C(F)(F)F)c1)N1CCC2(CC1)Oc1cc(Cl)ccc1-n1cccc12 [Compound 57]
IC50: ≤ 2000 nM

COc1cc(C(=O)N2CCC3(CC2)Oc2ccccc2-n2cccc23)ccc1C(C)(C)O [Compound 59]
IC50: ≤ 2000 nM

COc1cc(F)cc(C(=O)N2CCC3(CC2)Oc2cc(Cl)ccc2-n2cccc23)c1 [Compound 60]
IC50: ≤ 2000 nM

COCCOc1ccc(C(=O)N2CCC3(CC2)Oc2ccccc2-n2cccc23)cc1C#N [Compound 62]
IC50: ≤ 2000 nM

COc1cc(C(=O)N2CCC3(CC2)Oc2cc(Cl)ccc2-n2cccc23)ccc1F [Compound 63]
IC50: ≤ 2000 nM

CC(C)C(O)c1ccc(C(=O)N2CCC3(CC2)Oc2ccccc2-n2c(C#N)ccc23)cc1 (stereo not drawn) [Compound 65]
IC50: ≤ 2000 nM

CC(C)Oc1ccc(C(=O)N2CCC3(CC2)Oc2ccccc2-c2c3cnn2C)cc1CO [Compound 66]
IC50: ≤ 2000 nM

Cc1cc(C(=O)N2CCC3(CC2)Oc2ccccc2-c2c3cnn2C)ccc1S(=O)(=O)C(C)(C)C [Compound 67]
IC50: ≤ 2000 nM

CCCOc1ccc(C(=O)N2CCC3(CC2)Oc2ccccc2-n2cccc23)cc1C(F)(F)F [Compound 69]
IC50: ≤ 2000 nM

CC(C)Oc1ccc(C(=O)N2CCC3(CC2)Oc2ccccc2-n2c3ccc2S(C)(=O)=O)c(F)c1 [Compound 70]
IC50: ≤ 2000 nM

Cc1cc(C(=O)N2CCC3(CC2)Oc2cc(F)ccc2-n2cccc23)ccc1OCC1CCCO1 (stereo not drawn) [Compound 74]
IC50: ≤ 2000 nM

Cc1cc(C(=O)N2CCC3(CC2)Oc2ccccc2-n2c(C#N)ccc23)ccc1O [Compound 76]
IC50: ≤ 2000 nM

CC(C)(C)S(=O)(=O)c1ccc(C(=O)N2CCC3(CC2)Oc2ccccc2-c2nn(C(F)(F)F)cc23)cc1 [Compound 78]
IC50: ≤ 2000 nM

COc1ccc(Cl)cc1C(=O)N1CCC2(CC1)Oc1ccccc1-c1c2cnn1C [Compound 80]
IC50: > 5000 nM

COc1ccccc1C(=O)N1CCC2(CC1)Oc1cc(Cl)ccc1-n1cccc12 [Compound 81]
IC50: ≤ 2000 nM

COCCn1ncc2c1-c1ccccc1OC21CCN(C(=O)c2ccc(C(C)(C)C)c(OC)c2)CC1 [Compound 82]
IC50: ≤ 2000 nM

COCCCOc1ccc(C(=O)N2CCC3(CC2)Oc2ccccc2-n2cccc23)cc1OC [Compound 83]
IC50: ≤ 2000 nM

Cc1cc(OC(F)(F)F)ccc1C(=O)N1CCC2(CC1)Oc1ccccc1-c1c2cnn1C [Compound 84]
IC50: 2000 to 5000 nM

Cn1ncc2c1-c1ccccc1OC21CCN(C(=O)c2ccc(=O)n(C)c2)CC1 [Compound 87]
IC50: > 5000 nM

COc1cc(C(=O)N2CCC3(CC2)Oc2cc(Cl)ccc2-n2cccc23)ccc1OC[C@H](O)CO [Compound 90]
IC50: ≤ 2000 nM

Cc1nc2c(C(=O)N3CCC4(CC3)Oc3ccccc3-c3c4cnn3C)cccc2[nH]1 [Compound 92]
IC50: 2000 to 5000 nM

COc1cc(S(C)(=O)=O)ccc1C(=O)N1CCC2(CC1)Oc1ccccc1-c1c2cnn1C [Compound 93]
IC50: 2000 to 5000 nM

COc1cc(OC(C)(C)C)ccc1C(=O)N1CCC2(CC1)Oc1ccccc1-c1c2cnn1C [Compound 94]
IC50: ≤ 2000 nM

COC[C@H](C)Oc1ccc(C(=O)N2CCC3(CC2)Oc2ccccc2-n2cccc23)cc1C(F)(F)F [Compound 95]
IC50: ≤ 2000 nM

COc1cc(C(=O)N2CCC3(CC2)Oc2ccccc2-n2cccc23)ccc1OCCO [Compound 97]
IC50: ≤ 2000 nM

CCOc1cc(C(=O)N2CCC3(CC2)Oc2ccccc2-c2nn(C)cc23)ccc1OC [Compound 98]
IC50: ≤ 2000 nM

Cn1ncc2c1-c1ccccc1OC21CCN(C(=O)c2cccn3ccnc23)CC1 [Compound 99]
IC50: ≤ 2000 nM

COC(=O)c1c(OC)cccc1C(=O)N1CCC2(CC1)Oc1ccccc1-n1c(C#N)ccc12 [Compound 101]
IC50: ≤ 2000 nM

Cn1ncc2c1-c1ccccc1OC21CCN(C(=O)c2ccccc2O)CC1 [Compound 102]
IC50: > 5000 nM

CC(C)(CO)c1ccc(C(=O)N2CCC3(CC2)Oc2cc(Cl)ccc2-n2cccc23)cc1F [Compound 103]
IC50: ≤ 2000 nM

Cn1ncc2c1-c1ccccc1OC21CCN(C(=O)c2ccc(N3CCCCC3)nc2)CC1 [Compound 104]
IC50: > 5000 nM

Cc1ccc(C(=O)N2CCC3(CC2)Oc2cc(Cl)ccc2-n2cccc23)cc1C [Compound 105]
IC50: ≤ 2000 nM

CC(C)(CO)c1ccc(C(=O)N2CCC3(CC2)Oc2cc(Cl)ccc2-n2cccc23)cc1 [Compound 106]
IC50: ≤ 2000 nM

Cn1ncc2c1-c1ccc(Cl)cc1OC21CCN(C(=O)c2cccc(F)c2OC(F)F)CC1 [Compound 108]
IC50: ≤ 2000 nM

COc1c(C)cccc1C(=O)N1CCC2(CC1)Oc1ccccc1-c1c2cnn1C [Compound 109]
IC50: ≤ 2000 nM

COc1ccc(C(=O)N2CCC3(CC2)Oc2cc(Cl)ccc2-n2cccc23)c(C)c1 [Compound 111]
IC50: ≤ 2000 nM

COc1cc(C(=O)N2CCC3(CC2)Oc2ccccc2-n2cccc23)ccc1O[C@@H]1CCOC1 [Compound 112]
IC50: ≤ 2000 nM

Cn1cc2c(n1)-c1ccccc1OC21CCN(C(=O)c2cccc3cccnc23)CC1 [Compound 113]
IC50: ≤ 2000 nM

COc1cc(C(=O)N2CCC3(CC2)Oc2ccccc2-n2c(C(C)=O)ccc23)ccc1OC(C)C [Compound 114]
IC50: ≤ 2000 nM

COc1ccc(F)cc1C(=O)N1CCC2(CC1)Oc1ccccc1-n1c(C#N)ccc12 [Compound 115]
IC50: ≤ 2000 nM

COc1cc(OC(F)(F)F)ccc1C(=O)N1CCC2(CC1)Oc1cc(Cl)ccc1-n1cccc12 [Compound 116]
IC50: ≤ 2000 nM
